In one test the target is rat mGlu2 receptor (Rattus norvegicus (Rat), UniProt P31421). The experiment in a line: mGlu2 in vitro GIRK thallium flux assay. The class given is cell-based. As to conditions: NAM, EC80 glutamate, HEK-293 GIRK cells. On the procedure: (§1) All cell culture reagents were purchased from Invitrogen Corp. (Carlsbad, Calif.) unless otherwise noted. Compound activity at the group II (mGlu2 and mGlu3) mGlus was assessed using thallium flux through GIRK channels. Briefly, cells were plated into 384-well, black-walled, clear-bottomed poly-D-lysine-coated plates at a density of 15,000 cells/20 μL/well in DMEM containing 10% dialyzed FBS, 20 mM HEPES, and 100 units/mL penicillin/streptomycin (assay media). Plated cells were incubated overnight at 37° C. in the presence of 5% CO2. […] Cells were incubated for 1 h at room temperature, and the dye exchanged to assay buffer using an ELX405, leaving 20 μL/well. Test compounds were diluted to 2 times their final desired concentration in assay buffer (0.3% DMSO final concentration). […] Cell plates and compound plates were loaded onto a kinetic imaging plate reader (FDSS 6000 or 7000; Hamamatsu Corporation, Bridgewater, N.J.). Appropriate baseline readings were taken (10 images at 1 Hz; excitation, 470±20 nm; emission, 540±30 nm) and test compounds were added in a 20 μL volume and incubated for either 2.5 min or 60 min as indicated before the addition of 10 μL of thallium buffer with or without agonist. After the addition of agonist, data were collected for approximately an additional 2.5 min. Data were analyzed using Excel (Microsoft Corp, Redmond, Wash.). The slope of the fluorescence increase beginning 5 s after thallium/agonist addition and ending 15 s after thallium/agonist addition was calculated, corrected to vehicle and maximal agonist control slope values, and plotted in using either XLfit (ID Business Solutions Ltd) or Prism software (GraphPad Software, San Diego, Calif.) to generate concentration-response curves. Potencies were calculated from fits using a four-point parameter logistic equation. For concentration-response curve experiments, compounds were serially diluted 1:3 into 10 point concentration response curves and were transferred to daughter plates using an Echo acoustic plate reformatter (Labcyte, Sunnyvale, Calif.). Test compounds were applied and followed by EC80 concentrations of glutamate.
Chain of rat mGlu2 receptor (P31421 19-872): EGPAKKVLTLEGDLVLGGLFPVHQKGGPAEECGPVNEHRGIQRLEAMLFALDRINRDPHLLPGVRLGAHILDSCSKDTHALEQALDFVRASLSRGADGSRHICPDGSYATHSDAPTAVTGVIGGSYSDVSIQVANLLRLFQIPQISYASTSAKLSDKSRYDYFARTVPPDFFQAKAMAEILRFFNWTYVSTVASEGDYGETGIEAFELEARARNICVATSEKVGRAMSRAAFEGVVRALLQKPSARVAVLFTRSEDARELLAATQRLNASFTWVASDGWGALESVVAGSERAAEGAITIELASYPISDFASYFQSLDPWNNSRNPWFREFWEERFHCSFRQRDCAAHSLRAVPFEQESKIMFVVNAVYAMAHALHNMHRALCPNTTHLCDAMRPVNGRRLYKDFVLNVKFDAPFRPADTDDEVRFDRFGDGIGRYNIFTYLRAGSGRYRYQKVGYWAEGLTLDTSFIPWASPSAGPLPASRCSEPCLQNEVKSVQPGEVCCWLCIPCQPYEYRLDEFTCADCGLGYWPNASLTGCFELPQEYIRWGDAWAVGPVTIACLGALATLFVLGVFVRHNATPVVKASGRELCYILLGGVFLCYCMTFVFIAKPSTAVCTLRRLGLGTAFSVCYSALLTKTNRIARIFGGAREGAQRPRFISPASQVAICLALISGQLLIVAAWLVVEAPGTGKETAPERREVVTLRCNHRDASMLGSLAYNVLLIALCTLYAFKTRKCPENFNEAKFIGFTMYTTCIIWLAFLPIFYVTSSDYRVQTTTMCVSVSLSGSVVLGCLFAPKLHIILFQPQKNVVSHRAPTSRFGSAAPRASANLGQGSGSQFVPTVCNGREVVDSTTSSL

The target of a further test is rat mGlu3 receptor (Rattus norvegicus (Rat), UniProt P31422). The experiment in a line: mGlu3 in vitro GIRK thallium flux assay. It counts as cell-based. As to conditions: NAM; 2.5 min compound incubation; EC80 glutamate; HEK-293 GIRK cells. As to the method: as §1
Chain of rat mGlu3 receptor (P31422 23-879): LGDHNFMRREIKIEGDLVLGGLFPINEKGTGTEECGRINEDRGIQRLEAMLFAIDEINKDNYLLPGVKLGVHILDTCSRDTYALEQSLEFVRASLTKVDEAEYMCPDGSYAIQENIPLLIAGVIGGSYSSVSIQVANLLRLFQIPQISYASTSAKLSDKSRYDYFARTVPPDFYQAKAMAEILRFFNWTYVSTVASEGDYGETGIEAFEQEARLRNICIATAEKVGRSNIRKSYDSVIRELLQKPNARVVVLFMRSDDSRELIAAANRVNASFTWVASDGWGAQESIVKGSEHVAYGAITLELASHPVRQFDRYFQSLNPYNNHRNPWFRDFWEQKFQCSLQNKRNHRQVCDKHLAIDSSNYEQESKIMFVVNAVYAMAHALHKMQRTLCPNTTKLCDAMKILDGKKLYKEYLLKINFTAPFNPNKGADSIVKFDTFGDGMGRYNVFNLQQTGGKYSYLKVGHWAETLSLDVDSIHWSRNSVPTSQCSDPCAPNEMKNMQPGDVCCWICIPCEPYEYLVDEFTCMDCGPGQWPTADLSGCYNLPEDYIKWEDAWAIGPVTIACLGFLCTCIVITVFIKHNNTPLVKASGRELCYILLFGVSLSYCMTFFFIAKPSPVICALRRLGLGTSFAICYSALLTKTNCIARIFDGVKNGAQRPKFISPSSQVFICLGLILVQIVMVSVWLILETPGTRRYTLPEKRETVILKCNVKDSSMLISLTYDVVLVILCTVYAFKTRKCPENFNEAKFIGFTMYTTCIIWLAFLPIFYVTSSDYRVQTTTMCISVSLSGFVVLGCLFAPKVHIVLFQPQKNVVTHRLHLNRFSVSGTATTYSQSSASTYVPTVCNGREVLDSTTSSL
Setting [1] is: read-out: mGlu2 EC50 (μM) (60 min), 60 min compound incubation.
The mark [2] stands for this setting: 2.5 min compound incubation, read-out: mGlu2 EC50 (μM) (2.5 min).
The mark [3] stands for this setting: mGlu2 EC50 (μM) (60 min), 60 min compound incubation.

SMILES strings stand for the structures. Like-named read-outs stand apart in the source and are kept apart here. Bounds are passed on as bounds.

For `Cc1cccc(C#Cc2cccc(C3=Nc4cc(C)c(C(F)(F)F)cc4NC(=O)C3)c2)n1` [Example 138, 7-Methyl-4-(3-((6-methylpyridin-2-yl)ethynyl)phenyl)-8-(trifluoromethyl)-1H-benzo[b][1,4]diazepin-2 (3H)-one], the EC50 at rat mGlu2 receptor (setting [1]) is more than 10 µM.
Regarding `COc1ccc(C(=O)O)cc1-c1cccc(-c2nc(-c3ccc(C(F)(F)F)nc3)cc(C(F)(F)F)n2)c1` [Example 77, 6-Methoxy-3′-(4-(trifluoromethyl)-6-(6-(trifluoromethyl)pyridin-3-yl)pyrimidin-2-yl)biphenyl-3-carboxylic Acid], the 50% effective concentration (EC50) was found to be 1.59 µM on rat mGlu3 receptor, 0.96 µM on rat mGlu2 receptor (setting [2]) and 0.29 µM at rat mGlu2 receptor (setting [1]).
For the molecule `Cc1cc2c(cc1C(F)(F)F)NC(=O)CC(c1cccc(OCc3ccccc3)c1)=N2` [Example 144, 4-(3-(Benzyloxy)phenyl)-7-methyl-8-(trifluoromethyl)-1H-benzo[b][1,4]diazepin-2(3H)-one], the 50% effective concentration (EC50) at rat mGlu3 receptor is 2.93 µM; at rat mGlu2 receptor (setting [2]) it was more than 10 µM; at rat mGlu2 receptor (setting [3]), 2.36 µM.
On to `O=C(O)c1cc(-c2cccc(-c3nc(-c4cc(C(F)(F)F)cc(C(F)(F)F)c4)cc(C(F)(F)F)n3)c2)ccc1F` [Example 105, 3′-(4-(3,5-Bis(trifluoromethyl)phenyl)-6-(trifluoromethyl)pyrimidin-2-yl)-4-fluorobiphenyl-3-carboxylic Acid], for which the figures for the EC50 at rat mGlu3 receptor, on rat mGlu2 receptor (setting [2]) and at rat mGlu2 receptor (setting [1]) were more than 10 µM, more than 10 µM and 3.19 µM, respectively.
As to `O=C1CC(c2ccnc(Cl)c2)=Nc2ccc(-c3ccccc3)cc2N1` [Example 197, 4-(2-Chloropyridin-4-yl)-8-phenyl-1,3-dihydro-2H-benzo[b][1,4]diazepin-2-one], the EC50 on rat mGlu3 receptor and on rat mGlu2 receptor (setting [2]) was more than 10 µM throughout.
With `O=C(O)c1ccoc1-c1cccc(-c2nc(-c3ccccc3)n(-c3ccccc3)n2)c1` [Example 62, 2-(3-(1,5-Diphenyl-1H-1,2,4-triazol-3-yl)phenyl)furan-3-carboxylic Acid], the EC50 on rat mGlu3 receptor was 0.21 µM; on rat mGlu2 receptor (setting [2]), more than 10 µM; on rat mGlu2 receptor (setting [3]), more than 30 µM.
As for `O=C(O)c1cc(-c2cccc(Sc3nc(-c4ccco4)cc(C(F)(F)F)n3)c2)ccc1F` [Example 129, 4-Fluoro-3′-(4-(furan-2-yl)-6-(trifluoromethyl)pyrimidin-2-ylthio)biphenyl-3-carboxylic Acid], the 50% effective concentration (EC50) on rat mGlu3 receptor is more than 10 µM; at rat mGlu2 receptor (setting [2]) it was more than 10 µM; on rat mGlu2 receptor (setting [1]), 3.25 µM.
Regarding `NS(=O)(=O)c1cccc(-c2cn(-c3nc(-c4ccc(C(F)(F)F)nc4)cc(C(F)(F)F)n3)cn2)c1` [Example 125, 3-(1-(4-(Trifluoromethyl)-6-(6-(trifluoromethyl)pyridin-3-yl)pyrimidin-2-yl)-1H-imidazol-4-yl)benzenesulfonamide], the EC50 on rat mGlu3 receptor was more than 30 µM; on rat mGlu2 receptor (setting [2]) it was more than 10 µM; on rat mGlu2 receptor (setting [1]), more than 10 µM.
As to `Cc1cc2c(cc1C(F)(F)F)NC(=O)CC(c1cccc(OCc3ccccc3)c1)N2` (racemic) [Example 178, 4-(3-(Benzyloxy)phenyl)-7-methyl-8-(trifluoromethyl)-4,5-dihydro-1H-benzo[b][1,4]diazepin-2(3H)-one], on rat mGlu2 receptor (setting [3]), the EC50 is more than 10 µM.
Regarding `O=C1CC(c2cccc(Br)c2)=Nc2ccc(NC(=O)OCc3ccccc3)cc2N1` [Example 157, Benzyl (4-(3-bromophenyl)-2-oxo-2,3-dihydro-1H-benzo[b][1,4]diazepin-8-yl)carbamate], the EC50 at rat mGlu2 receptor (setting [1]) was more than 10 µM.
On the same count and under the same terms, in the case of `Cc1cc2c(cc1C(F)(F)F)NC(=O)CC(c1cccc(Nc3ccccn3)c1)=N2` [Example 141, 7-Methyl-4-(3-(pyridin-2-ylamino)phenyl)-8-(trifluoromethyl)-1H-benzo[b][1,4]diazepin-2(3H)-one] it was more than 10 µM.
At rat mGlu2 receptor (setting [3]), `COC(=O)c1cccc(C2CC(=O)Nc3cc(C(F)(F)F)c(C)cc3N2)c1` (racemic) [Example 151, (±)-Methyl 3-(8-methyl-4-oxo-7-(trifluoromethyl)-2,3,4,5-tetrahydro-1H-benzo[b][1,4]diazepin-2-yl)benzoate] yielded a half-maximal effective concentration (EC50) of more than 10 µM.
Consider `O=c1[nH]c(-c2cc(-c3cccc(-c4nc(-c5ccoc5)cc(C(F)(F)F)n4)c3)ccc2F)no1` [Example 133, 3-(4-Fluoro-3′-(4-(furan-3-yl)-6-(trifluoromethyl)pyrimidin-2-yl)-[1,1′-biphenyl]-3-yl)-1,2,4-oxadiazol-5(4H)-one], for which the EC50 on rat mGlu2 receptor (setting [1]) worked out at 0.73 µM.
For `C#CCNC(=O)c1cccc(C2CC(=O)Nc3cc(C(F)(F)F)c(C)cc3N2)c1` (racemic) [Example 170B, 3-(8-Methyl-4-oxo-7-(trifluoromethyl)-2,3,4,5-tetrahydro-1H-benzo[b][1,4]diazepin-2-yl)-N-(prop-2-yn-1-yl)benzamide], the EC50 at rat mGlu2 receptor (setting [3]) was determined as 3.68 µM.
Consider `O=c1[nH]c(-c2cc(-c3cccc(-c4nc(-c5ccoc5)cc(C(F)(F)F)n4)c3)ccc2F)ns1` [Example 135, 3-(4-Fluoro-3′-(4-(furan-3-yl)-6-(trifluoromethyl)pyrimidin-2-yl)-[1,1′-biphenyl]-3-yl)-1,2,4-thiadiazol-5(4H)-one], for which, at rat mGlu2 receptor (setting [1]), the EC50 was more than 10 µM.
For `N#Cc1cccc(C2CC(=O)Nc3cc(C(=O)O)ccc3N2)c1` (racemic) [Example 161, 2-(3-Cyanophenyl)-4-oxo-2,3,4,5-tetrahydro-1H-benzo[b][1,4]diazepine-7-carboxylic Acid], the EC50 at rat mGlu2 receptor (setting [3]) was more than 30 µM.
On the same count and under the same terms, in the case of `O=C1CC(c2cccc(Br)c2)Nc2ccc(NC(=O)OCc3ccccc3)cc2N1` (racemic) [Example 158, Benzyl (2-(3-bromophenyl)-4-oxo-2,3,4,5-tetrahydro-1H-benzo[b][1,4]diazepin-7-yl)carbamate] it was more than 10 µM.
Take `Fc1ccc(-c2cccc(-c3nc(-c4ccoc4)cc(C(F)(F)F)n3)c2)cc1-c1noc(=S)[nH]1` [Example 134, 3-(4-Fluoro-3′-(4-(furan-3-yl)-6-(trifluoromethyl)pyrimidin-2-yl)-[1,1′-biphenyl]-3-yl)-1,2,4-oxadiazole-5(4H)-thione]: the EC50 at rat mGlu2 receptor (setting [1]) was more than 10 µM.
As for `N#Cc1cc(C2CC(=O)Nc3cc(C(=O)O)ccc3N2)ccn1` (racemic) [Example 160, 2-(2-Cyanopyridin-4-yl)-4-oxo-2,3,4,5-tetrahydro-1H-benzo[b][1,4]diazepine-7-carboxylic Acid], the EC50 on rat mGlu2 receptor (setting [3]) is more than 30 µM.
On the same count and under the same terms, in the case of `Cc1cc2c(cc1C(F)(F)F)NC(=O)CC(c1cccc(C(N)=O)c1)N2` (single isomer, unassigned) [Example 168A, 3-(8-Methyl-4-oxo-7-(trifluoromethyl)-2,3,4,5-tetrahydro-1H-benzo[b][1,4]diazepin-2-yl)benzamide] it was more than 10 µM.
`Fc1ccc(-c2cccc(-c3nc(-c4ccc(C(F)(F)F)nc4)cc(C(F)(F)F)n3)c2)cc1-c1nn[nH]n1` [Example 124, 2-(4′-Fluoro-3′-(2H-tetrazol-5-yl)-[1,1′-biphenyl]-3-yl)-4-(trifluoromethyl)-6-(6-(trifluoromethyl)pyridin-3-yl)pyrimidine]: the EC50 on rat mGlu2 receptor (setting [1]) turned out to be 1.29 µM.
The same measure, in the same setting: in the case of `CCOC(=O)/C=C/c1cccc(C2=Nc3cc(C)c(C(F)(F)F)cc3NC(=O)C2)c1` [Example 152, Ethyl 3-(3-((E)-7-methyl-2-oxo-8-(trifluoromethyl)-2,3-dihydro-1H-benzo[b][1,4]diazepin-4-yl)phenyl)acrylate] it was 3.26 µM.
`Cc1cc2c(cc1C(F)(F)F)NC(=O)CC(c1cccc(-n3ccc4ccccc43)c1)N2` (racemic) [Example 167B, 4-(3-(1H-Indol-1-yl)phenyl)-7-methyl-8-(trifluoromethyl)-4,5-dihydro-1H-benzo[b][1,4]diazepin-2(3H)-one]: at rat mGlu2 receptor (setting [3]), the EC50 was more than 10 µM.
As to `Cc1cc2c(cc1C(F)(F)F)NC(=O)CC(c1cccc(Oc3cc(F)cc(F)c3)c1)N2` (single isomer, unassigned) [Example 174B, 4-(3-(3,5-Difluorophenoxy)phenyl)-7-methyl-8-(trifluoromethyl)-4,5-dihydro-1H-benzo[b][1,4]diazepin-2(3H)-one], at rat mGlu2 receptor (setting [1]), the half-maximal effective concentration (EC50) was more than 10 µM.
As for `C#Cc1cccc(C2CC(=O)Nc3cc(C(F)(F)F)c(C)cc3N2)c1` (single isomer, unassigned) [Example 175B, 4-(3-Ethynylphenyl)-7-methyl-8-(trifluoromethyl)-4,5-dihydro-1H-benzo[b][1,4]diazepin-2(3H)-one], the EC50 on rat mGlu2 receptor (setting [3]) amounted to 4.47 µM.
The same measure, in the same setting: in the case of `Cc1cc2c(cc1C(F)(F)F)NC(=O)CC(c1cccc(CCC(=O)O)c1)N2` (single isomer, unassigned) [Example 155B, 3-(3-(8-methyl-4-oxo-7-(trifluoromethyl)-2,3,4,5-tetrahydro-1H-benzo[b][1,4]diazepin-2-yl)phenyl)propanoic acid] it was more than 10 µM.

The record behind these values is patent US9969726B2, “Metabotropic glutamate receptor negative allosteric modulators (NAMS) and uses thereof” (Sanford-Burnham Medical Research Institute, priority 2014, dated 2018).
